Data from patent US7977349B2, “Substituted quinolones III” (Aicuris GmbH & Co. KG, priority 2006, dated 2011).

Tests used:
HCMV = assay: Anti-HCMV (anti-human cytomegalovirus) cytopathogenicity test; type: cell-based; settings: Human betaherpesvirus 5, NHDF, 144 h, concentration inhibiting the CPE by 50% vs untreated virus control; HCMV-infected NHDF cells, 6 days, visual assessment
Protocol: Anti-HCMV (Anti-Human Cytomegalovirus) Cytopathogenicity Tests The test compounds are employed as 50 millimolar (mM) solutions in dimethyl sulfoxide (DMSO). Ganciclovir®, Foscarnet® and Cidofovir® are used as reference compounds. After the addition of 2 μl of the 50, 5, 0.5 and 0.05 mM DMSO stock solutions respectively to 98 μl portions of cell culture medium in row […] for duplicate determinations, 1:2 dilutions are carried out with 50 μl portions of medium up to row 11 of the 96-well plate. The wells in rows 1 and 12 each contain 50 μl of medium. 150 μl of a suspension of 1×10^4 cells (human prepuce fibroblasts [NHDF]) are then pipetted into each of the wells (row 1=cell control) and, in rows 2-12, a mixture of HCMV-infected and uninfected NHDF cells (M.O.I.=0.001-0.002), i.e. 1-2 infected cells per 1000 uninfected cells. Row 12 (without substance) serves as virus control. The final test concentrations are 250-0.0005 μM. The plates are incubated at 37° C./5% CO2 for 6 days, i.e. until all the cells in the virus controls are infected (100% cytopathogenic effect [CPE]). The wells are then fixed and stained by adding a mixture of formalin and Giemsa's dye (30 minutes), washed with double-distilled water and dried in a drying oven at 50° C. The plates are then assessed visually using an overhead microscope (plaque multiplier from Technomara). The following data can be obtained from the test plates: EC50 (HCMV)=substance concentration in μM which inhibits the CPE (cytopathic effect) by 50% compared with the untreated virus control;

[1] = Cytostatic effects on NHDF cells in the anti-HCMV cytopathogenicity test; type: cell-based, human; settings: human, concentration at which no visible cytostatic effects on NHDF cells are evident vs untreated cell control
Protocol: Anti-HCMV (Anti-Human Cytomegalovirus) Cytopathogenicity Tests The test compounds are employed as 50 millimolar (mM) solutions in dimethyl sulfoxide (DMSO). Ganciclovir®, Foscarnet® and Cidofovir® are used as reference compounds. After the addition of 2 μl of the 50, 5, 0.5 and 0.05 mM DMSO stock solutions respectively to 98 μl portions of cell culture medium in row […] for duplicate determinations, 1:2 dilutions are carried out with 50 μl portions of medium up to row 11 of the 96-well plate. The wells in rows 1 and 12 each contain 50 μl of medium. 150 μl of a suspension of 1×10^4 cells (human prepuce fibroblasts [NHDF]) are then pipetted into each of the wells (row 1=cell control) and, in rows 2-12, a mixture of HCMV-infected and uninfected NHDF cells (M.O.I.=0.001-0.002), i.e. 1-2 infected cells per 1000 uninfected cells. Row 12 (without substance) serves as virus control. The final test concentrations are 250-0.0005 μM. The plates are incubated at 37° C./5% CO2 for 6 days, i.e. until all the cells in the virus controls are infected (100% cytopathogenic effect [CPE]). The wells are then fixed and stained by adding a mixture of formalin and Giemsa's dye (30 minutes), washed with double-distilled water and dried in a drying oven at 50° C. The plates are then assessed visually using an overhead microscope (plaque multiplier from Technomara). The following data can be obtained from the test plates: CC50 (NHDF)=substance concentration in μM at which no visible cytostatic effects on the cells are evident compared with the untreated cell control;

COc1c(N2CCC(C(=O)O)CC2)c(F)cc2c(=O)c(C(=O)NCc3ccc(OC(F)(F)F)cc3C)cn(CCF)c12 [Example 49, 1-[6-Fluoro-1-(2-fluoroethyl)-8-methoxy-3-({[2-methyl-4-(trifluoromethoxy)benzyl]amino}carbonyl)-4-oxo-1,4-dihydroquinolin-7-yl]piperidine-4-carboxylic acid]
EC50 (HCMV): 0.006 µM
CC50 at 6 days [1]: 94 µM

CCOC(=O)C1CCN(c2c(F)cc3c(=O)c(C(=O)NCc4ccc(Cl)cc4Cl)cn(CC(F)(F)F)c3c2OC)CC1 [Example 1, Ethyl 1-[3-{[(2,4-dichlorobenzyl)amino]carbonyl}-6-fluoro-8-methoxy-4-oxo-1-(2,2,2-trifluoroethyl)-1,4-dihydroquinolin-7-yl]piperidine-4-carboxylate]
EC50 (HCMV): 0.009 µM
CC50 at 6 days [1]: 94 µM

CCOC(=O)C1CCN(c2c(F)cc3c(=O)c(C(=O)NCc4ccc(Cl)cc4C)cn(CC(F)(F)F)c3c2OC)CC1 [Example 7]
EC50 (HCMV): 0.018 µM
CC50 at 6 days [1]: 94 µM

CCOC(=O)C1CCN(c2c(F)cc3c(=O)c(C(=O)NCc4ccc(OC(F)(F)F)cc4Cl)cn(CC(F)(F)F)c3c2OC)CC1 [Example 3, Ethyl 1-[3-({[2-chloro-4-(trifluoromethoxy)benzyl]amino}carbonyl)-6-fluoro-8-methoxy-4-oxo-1-(2,2,2-trifluoroethyl)-1,4-dihydroquinolin-7-yl]piperidine-4-carboxylate]
EC50 (HCMV): 0.008 µM
CC50 at 6 days [1]: 24 µM

CCOc1c(N2CCC(C(=O)O)CC2)c(F)cc2c(=O)c(C(=O)NCc3ccc(OC(F)(F)F)cc3C)cn(CC(F)(F)F)c12 [Example 79, 1-[8-Ethoxy-6-fluoro-3-({[2-methyl-4-(trifluoromethoxy)benzyl]amino}carbonyl)-4-oxo-1-(2,2,2-trifluoroethyl)-1,4-dihydroquinolin-7-yl]piperidine-4-carboxylic acid]
EC50 (HCMV): 0.002 µM
CC50 at 6 days [1]: 125 µM

COc1c(N2CCC(C(=O)O)CC2)c(F)cc2c(=O)c(C(=O)NCc3ccc(OC(F)(F)F)cc3C)cn(CC(F)(F)F)c12 [Example 47, 1-[6-Fluoro-8-methoxy-3-({[2-methyl-4-(trifluoromethoxy)benzyl]amino}carbonyl)-4-oxo-1-(2,2,2-trifluoroethyl)-1,4-dihydroquinolin-7-yl]piperidine-4-carboxylic acid]
EC50 (HCMV): 0.004 µM
CC50 at 6 days [1]: 86 µM

COc1c(N2CCC(C(=O)O)CC2)c(F)cc2c(=O)c(C(=O)NCc3ccc(OC(F)(F)F)cc3C)cn([C@@H]3C[C@@H]3F)c12 [Example 63]
EC50 (HCMV): 0.008 µM
CC50 at 6 days [1]: 47 µM

COc1c(N2CCC(CC(=O)O)CC2)c(F)cc2c(=O)c(C(=O)NCc3ccc(Cl)cc3C)cn(C3CC3)c12 [Example 67]
EC50 (HCMV): 0.061 µM
CC50 at 6 days [1]: 21 µM

COc1c(N2CCC3(CC2)CNC(=O)C3)c(F)cc2c(=O)c(C(=O)NCc3ccc(OC(F)(F)F)cc3Cl)cn(CC(F)(F)F)c12 [Example 36]
EC50 (HCMV): 0.014 µM
CC50 at 6 days [1]: 21 µM

COc1c(N2CCC(C(=O)O)CC2)c(F)cc2c(=O)c(C(=O)NCc3ccc(C(F)(F)F)cc3C)cn(CC(F)(F)F)c12 [Example 54]
EC50 (HCMV): 0.022 µM
CC50 at 6 days [1]: 21 µM

COc1c(N2CCC(C(=O)O)CC2)c(F)cc2c(=O)c(C(=O)NCc3ccc(Cl)cc3Cl)cn(CC(F)(F)F)c12 [Example 50, 1-[3-{[(2,4-Dichlorobenzyl)amino]carbonyl}-6-fluoro-8-methoxy-4-oxo-1-(2,2,2-trifluoroethyl)-1,4-dihydroquinolin-7-yl]piperidine-4-carboxylic acid]
EC50 (HCMV): 0.012 µM
CC50 at 6 days [1]: 47 µM

COc1c(N2CCC(C(=O)O)CC2)c(F)cc2c(=O)c(C(=O)NCc3ccc(OC(F)(F)F)cc3C)cn(C(C)CF)c12 (stereo not shown) [Example 65]
EC50 (HCMV): 0.079 µM
CC50 at 6 days [1]: 106 µM

CCOC(=O)C1CCN(c2c(F)cc3c(=O)c(C(=O)NCc4ccc(Cl)cc4Cl)cn([C@H]4C[C@H]4F)c3c2OC)CC1 [Example 13]
EC50 (HCMV): 0.019 µM
CC50 at 6 days [1]: 23 µM

COc1c(N2CCCC(CC(=O)O)C2)c(F)cc2c(=O)c(C(=O)NCc3ccc(Cl)cc3Cl)cn(CC(F)(F)F)c12 (stereo not shown) [Example 51, [3-{[(2,4-Dichlorobenzyl)amino]carbonyl}-6-fluoro-8-methoxy-4-oxo-1-(2,2,2-trifluoroethyl)-1,4-dihydroquinolin-7-yl]piperidin-3-ylacetic acid]
EC50 (HCMV): 0.026 µM
CC50 at 6 days [1]: 47 µM

COc1c(N2CCC[C@H](CC(=O)O)C2)c(F)cc2c(=O)c(C(=O)NCc3ccc(OC(F)(F)F)cc3C)cn(CC(F)(F)F)c12 [Example 73, {(3R)-1-[6-Fluoro-8-methoxy-3-({[2-methyl-4-(trifluoromethoxy)benzyl]amino}carbonyl)-4-oxo-1-(2,2,2-trifluoroethyl)-1,4-dihydroquinolin-7-yl]piperidin-3-yl}acetic acid]
EC50 (HCMV): 0.003 µM
CC50 at 6 days [1]: 47 µM

COc1c(N2CCC(C(N)=O)CC2)c(F)cc2c(=O)c(C(=O)NCc3ccc(C(F)(F)F)cc3C)cn(CC(F)(F)F)c12 [Example 30]
EC50 (HCMV): 0.034 µM
CC50 at 6 days [1]: 11 µM

COc1c(N2CCC(CC(=O)O)CC2)c(F)cc2c(=O)c(C(=O)NCc3ccc(OC(F)(F)F)cc3C)cn(CC(F)(F)F)c12 [Example 53, [6-Fluoro-8-methoxy-3-({[2-methyl-4-(trifluoromethoxy)benzyl]amino}carbonyl)-4-oxo-1-(2,2,2-trifluoroethyl)-1,4-dihydroquinolin-7-yl]piperidin-4-ylacetic acid]
EC50 (HCMV): 0.005 µM
CC50 at 6 days [1]: 94 µM

Cc1cc(OC(F)(F)F)ccc1CNC(=O)c1cn(CC(F)(F)F)c2c(O)c(N3CCC(C(=O)O)CC3)c(F)cc2c1=O [Example 77, 1-[6-Fluoro-8-hydroxy-3-({[2-methyl-4-(trifluoromethoxy)benzyl]amino}carbonyl)-4-oxo-1-(2,2,2-trifluoroethyl)-1,4-dihydroquinolin-7-yl]piperidine-4-carboxylic acid]
EC50 (HCMV): 0.006 µM
CC50 at 6 days [1]: 250 µM

COc1c(N2CCC(C(=O)O)CC2)c(F)cc2c(=O)c(C(=O)NCc3c(C)cc(Cl)cc3Cl)cn(CC(F)(F)F)c12 [Example 57]
EC50 (HCMV): 0.026 µM
CC50 at 6 days [1]: 23 µM

COc1c(N2CCC3(CC2)CNC(=O)C3)c(F)cc2c(=O)c(C(=O)NCc3ccc(OC(F)(F)F)cc3C)cn(C3CC3)c12 [Example 34, 1-Cyclopropyl-6-fluoro-8-methoxy-N-[2-methyl-4-(trifluoromethoxy)benzyl]-4-oxo-7-(3-oxo-2,8-diazaspiro[4.5]dec-8-yl)-1,4-dihydroquinoline-3-carboxamide]
EC50 (HCMV): 0.04 µM
CC50 at 6 days [1]: 11 µM

COc1c(N2CCC(C(N)=O)CC2)c(F)cc2c(=O)c(C(=O)NCc3ccc(Cl)cc3Cl)cn(CC(F)(F)F)c12 [Example 27]
EC50 (HCMV): 0.013 µM
CC50 at 6 days [1]: 21 µM

COc1c(N2C[C@@H](C)[C@@H](O)[C@@H](C)C2)c(F)cc2c(=O)c(C(=O)NCc3ccc(OC(F)(F)F)cc3C)cn(CC(F)(F)F)c12 [Example 32, 6-Fluoro-7-[(all-cis)-4-hydroxy-3,5-dimethylpiperidin-1-yl]-8-methoxy-N-[2-methyl-4-(trifluoromethoxy)benzyl]-4-oxo-1-(2,2,2-trifluoroethyl)-1,4-dihydroquinoline-3-carboxamide]
EC50 (HCMV): 0.017 µM
CC50 at 6 days [1]: 11 µM

COc1c(N2CCC(C(=O)O)CC2)c(F)cc2c(=O)c(C(=O)NCc3ccc(OC(F)(F)F)cc3Cl)cn(CC(F)(F)F)c12 [Example 48, 1-[3-({[2-Chloro-4-(trifluoromethoxy)benzyl]amino}carbonyl)-6-fluoro-8-methoxy-4-oxo-1-(2,2,2-trifluoroethyl)-1,4-dihydroquinolin-7-yl]piperidine-4-carboxylic acid]
EC50 (HCMV): 0.003 µM
CC50 at 6 days [1]: 20 µM
